Experimental data published in patent US11891350B2, “Compounds for use in the treatment or prophylaxis of pain, inflammation and/or autoimmunity” (NOVAREMED LTD., priority 2019, dated 2024).
Like-named read-outs stand apart in the source and are kept apart here. Values belong to the molecule of their own block, whether it stands above or below them.

Columns and labels:
[1] = molecular target: LynB tyrosine kinase (Homo sapiens, UniProt P07948); test: Effect on LynB tyrosine kinase activity; type: biochemical
Sequence of LynB tyrosine kinase (P07948 1-491 isoform P07948-2): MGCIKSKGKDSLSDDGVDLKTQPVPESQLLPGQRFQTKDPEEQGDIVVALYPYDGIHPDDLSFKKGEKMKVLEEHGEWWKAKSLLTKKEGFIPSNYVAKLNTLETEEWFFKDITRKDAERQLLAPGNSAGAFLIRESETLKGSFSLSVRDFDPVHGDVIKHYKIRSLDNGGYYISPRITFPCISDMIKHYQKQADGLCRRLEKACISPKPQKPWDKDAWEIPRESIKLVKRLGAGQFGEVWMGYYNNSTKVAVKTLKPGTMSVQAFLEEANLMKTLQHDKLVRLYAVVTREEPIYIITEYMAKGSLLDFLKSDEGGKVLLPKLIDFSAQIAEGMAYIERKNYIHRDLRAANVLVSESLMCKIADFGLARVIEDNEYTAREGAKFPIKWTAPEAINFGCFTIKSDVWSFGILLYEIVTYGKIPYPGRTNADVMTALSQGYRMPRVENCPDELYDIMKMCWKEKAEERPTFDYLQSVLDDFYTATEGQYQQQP

[2] = molecular target: LynA tyrosine kinase (Homo sapiens, UniProt P07948); test: Effect on LynA tyrosine kinase activity; type: biochemical
Sequence of LynA tyrosine kinase (P07948 whole entry): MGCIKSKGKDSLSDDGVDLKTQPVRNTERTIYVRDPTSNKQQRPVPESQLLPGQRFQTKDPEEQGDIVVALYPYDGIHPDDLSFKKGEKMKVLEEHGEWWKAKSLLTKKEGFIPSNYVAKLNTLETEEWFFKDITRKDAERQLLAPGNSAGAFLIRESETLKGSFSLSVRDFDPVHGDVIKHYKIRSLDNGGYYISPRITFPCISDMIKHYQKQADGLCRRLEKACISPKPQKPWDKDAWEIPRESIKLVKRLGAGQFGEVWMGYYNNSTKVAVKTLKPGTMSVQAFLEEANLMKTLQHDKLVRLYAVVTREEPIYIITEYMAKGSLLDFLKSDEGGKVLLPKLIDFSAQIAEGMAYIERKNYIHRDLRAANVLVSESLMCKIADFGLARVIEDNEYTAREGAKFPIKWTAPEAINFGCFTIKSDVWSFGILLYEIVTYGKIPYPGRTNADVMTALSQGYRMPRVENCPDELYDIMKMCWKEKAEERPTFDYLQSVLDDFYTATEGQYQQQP

[3] = Bioavailability and pharmacokinetics of polymorphs 1 and 2 after single oral dose, cross-over, in dogs; type: in vivo, male Beagle dog; conditions: for LS geometric mean Cmax: corrected to a 60.0-mg dose; for adverse reactions to the oral administration: single oral dose 60 mg/kg
Experimental: This study was designed to obtain blood plasma samples to enable the comparison of the bioavailability and pharmacokinetics of two different polymorphs 1 and 2 following single-dose oral administration to six dogs. A cross-over design was used with three dogs treated according to sequence 1 (polymorph 2 after 1) and three dogs according to sequence 2 (polymorph 1 after 2) with a one-week washout period between treatments.
Each polymorph was prepared as a suspension in a vehicle of 0.5% w/v HPMC K15M/0.5% w/v Tween 80 in sterile water.
Six male Beagle dogs (Tattoo numbers: 4986, 0964, 3611, 2380, 5002 and 1122 on-study animal numbers: 001 M, 002M, 003M, 004M, 005M and 006M, respectively) bodyweight 9.5-11.5 kg, aged 2-7 years at dosing, currently held as part of a colony of animals (Colony number: 190431) were used on this study. Dogs were originally obtained from Marshall Farms USA Inc. (NY, USA) or Envigo RMS, and were bred for use in scientific procedures. During pre-trial and on-study periods, the animals were group-housed in caging appropriate to the species. Prior to acceptance for use on study, animals were subject to a veterinary examination and the results found to be satisfactory. Holding and study areas had automatic control of light cycles and temperature. Light hours were 0700-1900 h. Ranges of temperature and humidity measured during the study were 17.0-21.8° C. and 23.4-83.07%, respectively. All animals were weighed prior to each dose administration and the bodyweights recorded. With the exception of a period of fasting from overnight predose until 4 hours post dose, a daily allowance of 200-300 g of standard laboratory diet of known formulation (SDS D3 (E) SQC) was available. Mains quality tap water was available ad libitum.
The formulation was always prepared on the morning of dose administration. Each polymorph was prepared as a suspension at a concentration of 12 mg/mL in a vehicle of 0.5% w/v HPMC K15M/0.5% w/v Tween 80 in sterile water for injection. The required volume of vehicle was added to an appropriate formulation container.
Each group of 3 male dogs, received a single oral dose administration of a polymorph at a target dose level of 60 mg/kg. Following a wash out period of 1 week each group of 3 male dogs received the alternative polymorph.
For each group, whole blood samples (ca 1.0 mL) were collected from the jugular veins in to NaF/EDTA tubes at the following time points:
Times given above were target times which were adhered to as closely as possible. Actual times of sample collection (and of dosing) were recorded (Table 2) and used in the evaluation of pharmacokinetic parameters. Immediately following collection, blood samples were placed on wet ice. As soon as practically possible the blood samples were centrifuged (+4° C., 1500 g, 10 min). The resulting plasma was divided into two aliquots (vial A: 100 μl plasma, vial B: remaining volume) and stored in appropriately labelled polypropylene tubes in a freezer set to maintain a temperature of −80° C. until shipment. All plasma samples, remaining dose formulation and dose aliquots were stored in a freezer set to maintain a temperature of −80° C. until shipment.
Pharmacokinetic (PK) parameters were estimated using Phoenix pharmacokinetic software using a non-compartmental approach consistent with the oral route of administration. All parameters were generated from polymorph 1 and 2 individual concentrations in plasma. Parameters were estimated using nominal sampling times relative to the start of each dose administration within an allowable deviation range (±10%). Predose samples below the limit of quantification (0.5 ng/mL) were assumed to be 0 for the PK analysis.
The area under the polymorph 1 and 2 plasma concentration versus time curve (AUC) was calculated using the linear trapezoidal method with linear interpolation. […]

[4] = molecular target: BLK tyrosine kinase (Homo sapiens, UniProt P51451); test: Effect on BLK tyrosine kinase activity; type: biochemical
Sequence of BLK tyrosine kinase (P51451 whole entry): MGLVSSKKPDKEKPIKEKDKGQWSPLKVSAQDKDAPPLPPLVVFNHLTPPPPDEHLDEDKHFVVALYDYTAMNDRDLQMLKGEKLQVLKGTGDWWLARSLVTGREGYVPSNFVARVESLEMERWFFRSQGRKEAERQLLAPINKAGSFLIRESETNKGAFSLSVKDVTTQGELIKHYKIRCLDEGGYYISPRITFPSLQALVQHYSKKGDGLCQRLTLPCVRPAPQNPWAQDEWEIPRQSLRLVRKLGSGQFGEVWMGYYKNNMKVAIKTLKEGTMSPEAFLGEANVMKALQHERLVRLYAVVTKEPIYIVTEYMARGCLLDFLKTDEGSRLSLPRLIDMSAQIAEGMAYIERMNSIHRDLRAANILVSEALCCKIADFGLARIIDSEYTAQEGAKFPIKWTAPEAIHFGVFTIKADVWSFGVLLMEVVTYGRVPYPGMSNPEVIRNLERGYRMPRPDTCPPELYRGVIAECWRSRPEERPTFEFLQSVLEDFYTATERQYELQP

[5] = Gravimetric Vapour Sorption (GVS); type: physicochemical; conditions: for change of polymorphic form on GVS cycling: hysteresis between cycles / XRPD after the cycles; for weight gain to 80% RH (GVS): first adsorption cycle
Experimental: Gravimetric Vapour Sorption (GVS)
Approximately 10 mg of sample was placed into a wire-mesh vapour sorption balance pan and loaded into an ‘IgaSorp’ vapour sorption balance (Hiden Analytical Instruments). The sample was then dried by maintaining a 0% humidity environment until no further weight change was recorded. Subsequently, the sample was subjected to a ramping profile from 0-90% RH at 10% RH increments, maintaining the sample at each step until equilibration had been attained (99% step completion). Upon reaching equilibration, the % RH within the apparatus was ramped to the next step and the equilibration procedure repeated. After completion of the sorption cycle, the sample was then dried using the same procedure. The weight change during the sorption/desorption cycles were then monitored, allowing for the hygroscopic nature of the sample to be determined.

[6] = male Beagle dog plasma, oral suspension, target 60 mg/kg

effect on activity of LynB tyrosine kinase [1]: no or substantially no effect
effect on activity of LynA tyrosine kinase [2]: capable of activating
extrapolated part of AUC(0-∞) ([3]; male Beagle dog, oral 60 mg/kg): no more than 6%
half-life ([3]; plasma, male Beagle dog, oral 60 mg/kg, terminal decline, read-out: estimated mean half-life): 3 to 4 h
effect on activity of BLK tyrosine kinase [4]: capable of activating
Compound: C[C@H](O)COC[C@H](Cc1ccc(O)cc1)NC(=O)CCc1ccccc1 [NRD135S.E1, (S,S)-2-N(3-O-(propan-2-ol)-1-propyl-4-hydroxybenzene)-3-phenylpropylamide]

LS geometric mean Cmax [3, 6]: 4986 ng/mL
AUC(0-inf) ([3]; male, Beagle, dog, plasma, po, 60 mg/kg, male Beagle dog plasma, oral suspension, target 60 mg/kg, corrected to a 60.0 mg dose, read-out: LS geometric mean AUC(0-∞)): 13200 ng·h/mL
hygroscopicity (GVS, in words) [5]: hygroscopic
change of polymorphic form on GVS cycling [5]: hinted towards form change
weight increase in second adsorption cycle (GVS) ([5]; second adsorption cycle, RH of 40%): > 2%
weight increase to 70% RH (GVS) ([5]; to 70% RH): ~1.3%
weight gain to 80% RH (GVS) [5]: 5.6%
Compound: C[C@H](O)COC[C@H](Cc1ccc(O)cc1)NC(=O)CCc1ccccc1 [polymorph 1, (S,S)-2-N(3-O-(propan-2-ol)-1-propyl-4-hydroxybenzene)-3-phenylpropylamide]
adverse reactions to the oral administration ([3]; male Beagle dog): No adverse reactions

bioavailability (in words) ([3]; dog bioavailability tests): exceptionally high
LS geometric mean AUC(0-∞) ([3]; male Beagle dog plasma, oral suspension, target 60 mg/kg, corrected to a 60.0 mg dose): 20064 ng·h/mL
LS geometric mean Cmax [3, 6]: 11088 ng/mL
geometric mean ratio (polymorph 2/polymorph 1) of AUC(0-∞) ([3]; male Beagle dog, oral, dose-corrected, 90% CI 1.35, 1.71): 1.52
geometric mean ratio (polymorph 2/polymorph 1) of Cmax ([3]; male Beagle dog, oral, dose-corrected, 90% CI 1.84, 2.70): 2.22
hygroscopicity (GVS, in words) [5]: only slightly hygroscopic
overall weight loss by the end of the two adsorption/desorption cycles (GVS) ([5]; after two adsorption/desorption cycles): ~1%
change of polymorphic form on GVS cycling ([5]; listed as Form 2): no change of polymorphic form
hygroscopicity (GVS, in words) ([5]; listed as Form 2): only slightly hygroscopic
weight gain to 80% RH (GVS) [5]: 0.6%
weight gain to 80% RH (GVS) ([5]; listed as Form 2): 0.6%
Compound: C[C@H](O)COC[C@H](Cc1ccc(O)cc1)NC(=O)CCc1ccccc1 [polymorph 2, (S,S)-2-N(3-O-(propan-2-ol)-1-propyl-4-hydroxybenzene)-3-phenylpropylamide]
adverse reactions to the oral administration ([3]; male Beagle dog): No adverse reactions
